Experiments:
SOD1^G93A/HB9::GFP MNs = assay: Mouse MN survival assay, trophic factor withdrawal; assay type: cell-based; conditions: for survival of SOD1^G93A/HB9::GFP MNs: trophic factors removed and compound added day 4, fixed day 7
Protocol: For the small molecule screen or for standard survival assays, freshly dissociated EBs were plated at a density of 8,000 GFP^+ cells (384-well) or 30.000 GFP+ cells (96-well) per well. Four days later (day 4), trophic factors (BDNF, GDNF and CNTF) were removed, and individual compounds were added to the wells. For the primary screen each was tested at three concentrations (0.1 μM, 1 μM and 10 μM) in duplicate. […] The number of MNs surviving was analyzed by counting the remaining GFP^+ cells in the whole well. Total cell numbers were obtained by counting Hoechst-positive nuclei. A size threshold was set based on control cultures to eliminate apoptotic MNs Unless stated otherwise, survival is measured as fold-increase compared to cultures maintained without trophic factors.
For long-term MN survival assays, MN cultures were fed with fresh medium and compounds every two days until fixation and quantification as above.
All primary hits were subsequently tested in a nine-point dose-response assay, using the same screening protocol.

[1] = system: HGK-Tak1-MKK4-JNK-c-Jun cell death signaling cascade; assay: JNK/c-Jun signaling pathway analysis by immunostaining; assay type: cell-based, mouse; conditions: trophic factor withdrawal
Protocol: For JNK/c-Jun signaling pathway analysis, freshly dissociated SOD1G93A/HB9::GFP and HB9::GFP EBs were plated at a density of 30,000 GFP+ cells/well in 96-well plates and trophic factor withdrawal/compound addition was performed on day 4. Cells were fixed at 1, 6, 24 and 48 h after treatment, stained with appropriate antibodies, and imaged using an automated microscope (Perkin Elmer Operetta) at 20× magnification. GFP+ MNs were identified using Columbus analysis software (Perkin Elmer). Nuclear and cytoplasmic compartments were defined using Hoechst and GFP. Mean intensity of fluorescent staining across nuclear or cytoplasmic compartments was measured for each MN. Intensities were corrected for background staining levels (secondary antibody only) and the number of positive MNs per condition quantified.

## O=C1Cc2c([nH]c3ccc(Br)cc23)-c2ccccc2N1 [Kenpaullone]
SOD1^G93A/HB9::GFP MNs; complete medium (+TF), day 28
  number of SOD1^G93A/HB9::GFP MNs in medium with kenpaullone: 8 times
SOD1^G93A/HB9::GFP MNs; days 7, 14, 21 and 28
  long-term survival of MNs without trophic factors: improved survival
SOD1^G93A/HB9::GFP MNs; first two weeks
  MN death in complete medium (+TF): reduced the death
SOD1^G93A/HB9::GFP MNs
  survival of SOD1^G93A/HB9::GFP MNs: strong effects
SOD1^G93A/HB9::GFP MNs; listed as kenpaullone
  survival of SOD1^G93A/HB9::GFP MNs: potent survival promoting effects
[1]
  MKK4 phosphorylation: suppressed
  proportion of MNs immunopositive for phospho-Tak1: significantly reduced
[1]; early time points
  percent of MNs positive for phospho-JNK: decreased
  percent of MNs positive for phospho-cJun: decreased
